Each structure is given as a SMILES string.

In assay [1] the target is T1, BACE (Homo sapiens, UniProt P56817).
T1 construct: Cells stably expressing Amyloid Precursor Protein (APP) were plated at a density of 40K cells/well in 96 well plates; endogenous in cells
In words: BACE cell-based assay (Cell Assay), inhibition of Aβ40 by sandwich ELISA. Particulars: Aβ40 in conditioned medium of cells stably expressing APP, 24 h incubation. Here is the method: BACE Cell-Based Assay (Cell Assay)
The cell-based assay measures inhibition or reduction of Aβ40 in conditioned medium of test compound treated cells expressing amyloid precursor protein.
Cells stably expressing Amyloid Precursor Protein (APP) were plated at a density of 40K cells/well in 96 well plates (Costar). The cells were cultivated for 24 hours at 37° C. and 5% CO2 in DMEM supplemented with 10% FBS. The test compounds were then added to cells in 10-point dose response concentrations with the starting concentration being either 100 μM or 10 μM. The compounds were diluted from stock solutions in DMSO and the final DMSO concentration of the test compounds on cells was 0.1%. After 24 h of incubation with the test compounds the supernatant conditioned media was collected and the Aβ40 levels were determined using a sandwich ELISA. The IC50 of the compound was calculated from the percent of control or percent inhibition of Aβ40 as a function of the concentration of the test compound.
The sandwich ELISA to detect Aβ40 was performed in 96 well microtiter plates, which were pre-treated with goat anti-rabbit IgG (Pierce). The capture and detecting antibody pair that were used to detect Aβ40 from cell supernatants were affinity purified pAb40 (Biosource) and biotinylated 6E10 (Signet Labs Inc.), respectively. The optimal concentration for the pAb40 antibody was 3 μg/ml in Superblock/TBS (Pierce) that was supplemented with 0.05% Tween 20 (Sigma). Optimal concentration for the detection antibody 6E10-biotinylated was 0.5 μg/ml in Superblock/TBS (Pierce) that had been supplemented with 2% normal goat serum and 2% normal mouse serum.
Cellular supernatants were incubated with the capture antibody for 3 h at 4° C., followed by 3 wash steps in TBS-tween (0.05%). The detecting antibody incubation was for 2 h at 4° C., again followed by the wash steps as described previously. The final readout of the ELISA is Time-Resolved Fluorescence (counts per minute) using Delfia reagents Streptavidin-Europium and Enhancement solutions (Perkin Elmer) and the Victor 2 multilabel counter (Perkin Elmer).
For orientation: An ELISA detects its analyte on a solid surface through an enzyme-linked reagent.

The target of assay [2] is T1, BACE. In words: In vitro enzymatic BACE FRET assay (Enzyme Assay). The class given is biochemical. Particulars: pH 4.2, enzyme 0.2 nM, FRET substrate 50 nM. Here is the method:
In Vitro Enzymatic BACE FRET (Fluorescence Resonance Energy Transfer) Assay (Enzyme Assay)
Assay buffer is 0.05 M acetate, pH 4.2, 10% DMSO final, 100 uM genapol (which is a nonionic detergent, below it's Critical Micelle Concentration). Enzyme (0.2 nM) is pre-incubated for one hour with inhibitors added in 1 uL of DMSO. Then the assay is started by the addition of FRET substrate (50 nM) and incubated for one hour. The FRET assay is terminated with by addition of Tris buffer, which raises the pH to neutrality, and the fluorescence is determined The FRET substrate is a peptide with commercially available fluorophore and quencher, on opposite sides of the BACE cleavage site. Proteolytic cleavage of the FRET substrate releases quenching of fluorescence (excitation 488 nm and […]).

T1 sequence (P56817 46-501): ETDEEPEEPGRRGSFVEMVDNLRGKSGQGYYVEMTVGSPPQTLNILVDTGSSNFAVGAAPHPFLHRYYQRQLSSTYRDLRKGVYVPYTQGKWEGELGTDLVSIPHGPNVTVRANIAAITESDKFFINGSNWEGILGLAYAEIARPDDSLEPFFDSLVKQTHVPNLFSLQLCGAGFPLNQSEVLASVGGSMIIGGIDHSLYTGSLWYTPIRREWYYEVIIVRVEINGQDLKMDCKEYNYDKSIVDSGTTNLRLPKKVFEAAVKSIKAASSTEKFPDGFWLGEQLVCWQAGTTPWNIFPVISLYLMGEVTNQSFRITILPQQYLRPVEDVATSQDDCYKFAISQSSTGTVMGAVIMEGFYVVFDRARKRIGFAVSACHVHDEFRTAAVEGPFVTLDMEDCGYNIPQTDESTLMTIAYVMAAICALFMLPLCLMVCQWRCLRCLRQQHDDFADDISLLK

The IC50 is the concentration at which inhibition is half-maximal. Low values mean inhibition by little substance, high ones a need for much substance. `CCc1ccc2c(c1)[C@@H](NC[C@@H](O)[C@H](Cc1ccccc1)Nc1nccc(C(F)(F)F)n1)CC1(CCC1)O2` [Example 33, (2R,3S)-1-((S)-6-ethyl-2,2-spirocyclobutyl-chroman-4-ylamino)-4-phenyl-3-(4-(trifluoromethyl)pyrimidin-2-ylamino)butan-2-ol]: the IC50 at BACE [1] and at BACE [2] was 10 to 25 µM throughout.

As for `CCc1ccc2c(c1)[C@@H](NC[C@@H](O)[C@H](Cc1ccccc1)Nc1nc3ccccc3o1)CC1(CCC1)O2` [Example 36, (2R,3S)-3-(1,3-benzoxazol-2-ylamino)-1-(((4S)-6-ethyl-3,4-dihydrospiro[chromene-2,1′-cyclobutan]-4-yl)amino)-4-phenyl-2-butanol], the results for the IC50 at BACE [1] and against BACE [2] were 1 to 5 µM and 10 to 25 µM, respectively.

`CC(C)(C)Cc1cnc2c(c1)[C@@H](NC[C@H](O)[C@H](Cc1ccccc1)Nc1ccccc1F)CC1(CCC1)O2` [Example 41, (2S,3S)-1-(((4′S)-6′-(2,2-dimethylpropyl)-3′,4′-dihydrospiro[cyclobutane-1,2′-pyrano[2,3-b]pyridin]-4′-yl)amino)-3-((2-fluorophenyl)amino)-4-phenyl-2-butanol]: the half-inhibitory concentration (IC50) against BACE [1] and against BACE [2] was 10 to 25 µM each time.

As to `CC(C)(C)Cc1cnc2c(c1)[C@@H](NC[C@@H](O)[C@H](Cc1ccc(F)cc1)Nc1ncnc3sccc13)CC1(CCC1)O2` [Example 35, (2R,3S)-1-(((4′S)-6′-(2,2-dimethylpropyl)-3′,4′-dihydrospiro[cyclobutane-1,2′-pyrano[2,3-b]pyridin]-4′-yl)amino)-4-(4-fluorophenyl)-3-(thieno[2,3-d]pyrimidin-4-ylamino)-2-butanol], the results for the IC50 against BACE [1] and against BACE [2] were 0.1 to 1 µM and 10 to 25 µM, respectively.

For `CCOc1c(N[C@@H](Cc2cccc(F)c2)[C@H](O)CN[C@H]2CC3(CCC3)Oc3ncc(CC(C)(C)C)cc32)c(=O)c1=O` [Example 45, 3-(((1S,2R)-3-(((4′S)-6′-(2,2-dimethylpropyl)-3′,4′-dihydrospiro[cyclobutane-1,2′-pyrano[2,3-b]pyridin]-4′-yl)amino)-1-((3-fluorophenyl)methyl)-2-hydroxypropyl)amino)-4-(ethyloxy)-3-cyclobutene-1,2-dione], the figures for the IC50 on BACE [1] and against BACE [2] were 0.1 to 1 µM and under 0.1 µM, respectively.

For the origin of these results see patent publication US7951838B2, “Substituted spirocyclic chromanamine compounds as Beta-Secretase modulators and methods of use” (Amgen Inc., priority 2007, dated 2011).
